A short description of data set [1]: Particle size and wet sieve residue of S-metolachlor CS mixed with sulfentrazone technical. Format: physicochemical. To be noted: single component, before mixing. The procedure:
Additional testing was done using two jars with S-metolachlor CS of Composition 2 and 8% sulfentrazone technical at a ratio of […]. One was mixed at room temperature and one at 30° C. for 1 hour.

Data set [2] in a line: Micrographic check for crystals after combining active ingredient with permeable S-metolachlor capsule suspension. In kind it is physicochemical. The procedure:
During further testing, Composition 2 was made with metribuzin being the only active ingredient (i.e., S-metolachlor and mesotrione were not present). An image, at 50-micron scale bar, is provided at FIG. 4A. To this formulation, the capsule suspension used in Composition 2 was added.
Further testing was done by replacing the metribuzin with sulfentrazone. In these tests sulfentrazone technical (powder, Dv(95)=307 microns) was added to a composition the CS of Composition 2 at a ratio of S-metolachlor:sulfentrazone of 10:0.8, and mixed for 1 hour at 30° C. to provide additional solubilization over room temperature.

Two compounds from US20250049029A1, “Agrochemical Compositions” (priority 2021, published 2025) can be followed below.

Each structure is given as a SMILES string.

Consider `Cc1nn(-c2cc(NS(C)(=O)=O)c(Cl)cc2Cl)c(=O)n1C(F)F` [sulfentrazone, Sulfentrazone], for which, in data set [1], the “Dv(50)” value is listed as 30.3 and the “Dv(95)” value is reported as 307. In addition, the sulfentrazone crystals observed result in data set [2] (sulfentrazone technical added to CS of Composition 2, S-metolachlor:sulfentrazone 10:0.8, mixed 1 hour at 30° C., FIG. 5) is recorded as “no sulfentrazone crystals were observed”. The “Dv(95)” value in data set [2] (sulfentrazone technical powder, before addition) turned out to be 307 microns.
Turning to `CSc1nnc(C(C)(C)C)c(=O)n1N` [metribuzin, Metribuzin], the metribuzin crystals visible entry in data set [2] (Composition 2 made with metribuzin as only active ingredient, after adding the capsule suspension used in Composition 2, FIG. 4B) is reported as “no metribuzin crystals appeared visible”.
